Where “and” joins values, the source holds several entries; their conditions need not be identical. Equal values may be shown once. Inconclusive results and toxic doses are left out. The calls were made as follows: active = survival T/C of 150% or more; inactive = T/C below 125% in these data.
System: P388 leukemia ip, CD2F1 mice, survival T/C
Experiment: NCI In Vivo Anticancer Drug Screen. Data for tumor model P388 Leukemia (intraperitoneal) in CD2F1 (CDF1) mice
Conditions: endpoint: median survival time, higher = longer survival
Summary of the method: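 Mice carrying the transplanted tumor received test compound or vehicle. Survival was recorded in each group, and the value is the treated-group measurement divided by that of the vehicle-treated control group.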

[1] = dose: 50.0 mg/kg/injection, schedule: Q01DX009 (ip), vehicle: saline with Tween-80
[2] = dose: 100.0 mg/kg/injection, schedule: Q01DX009 (ip), vehicle: saline with Tween-80
[3] = dose: 200.0 mg/kg/injection, schedule: Q01DX009 (ip), vehicle: saline with Tween-80
[4] = dose: 50.0 mg/kg/injection, schedule: Q01DX009 (ip), vehicle: Klucel (hydroxypropylcellulose) (HPC)
[5] = dose: 100.0 mg/kg/injection, schedule: Q01DX009 (ip), vehicle: Klucel (hydroxypropylcellulose) (HPC)
[6] = dose: 200.0 mg/kg/injection, schedule: Q01DX009 (ip), vehicle: Klucel (hydroxypropylcellulose) (HPC)
[7] = dose: 50.0 mg/kg/injection, schedule: Q01DX005 (ip), vehicle: Klucel (hydroxypropylcellulose) (HPC)
[8] = dose: 100.0 mg/kg/injection, schedule: Q01DX005 (ip), vehicle: Klucel (hydroxypropylcellulose) (HPC)
[9] = dose: 200.0 mg/kg/injection, schedule: Q01DX005 (ip), vehicle: Klucel (hydroxypropylcellulose) (HPC)
[10] = dose: 60.0 mg/kg/injection, schedule: Q01DX005 (ip), vehicle: Klucel (hydroxypropylcellulose) (HPC)
[11] = dose: 120.0 mg/kg/injection, schedule: Q01DX005 (ip), vehicle: Klucel (hydroxypropylcellulose) (HPC)
[12] = dose: 240.0 mg/kg/injection, schedule: Q01DX005 (ip), vehicle: Klucel (hydroxypropylcellulose) (HPC)
[13] = dose: 50.0 mg/kg/injection, schedule: Q01DX005 (ip), vehicle: saline with Tween-80
[14] = dose: 60.0 mg/kg/injection, schedule: Q01DX005 (ip), vehicle: saline with Tween-80
[15] = dose: 120.0 mg/kg/injection, schedule: Q01DX005 (ip), vehicle: saline with Tween-80
[16] = dose: 240.0 mg/kg/injection, schedule: Q01DX005 (ip), vehicle: saline with Tween-80

Measured: T/C

O/N=C1/CCCCC/C1=N/O
inactive: [1] 98 % of control | [2] 100 % of control | [3] 100 % of control | dose: 400.0 mg/kg/injection, schedule: Q01DX009 (ip), vehicle: saline with Tween-80 107 % of control

CCn1cnc(CC(NC(=O)C(F)(F)F)C(=O)O)c1 (stereo not drawn)
inactive: [4] 94 % of control | [5] 100 % of control | [6] 98 % of control

NS(=O)(=O)c1cc(C(=O)O)cc(NC(=O)CCCCl)c1Oc1ccccc1
inactive: [1] 103 % of control and 123 % of control | [2] 100 % of control and 96 % of control | [3] 104 % of control and 123 % of control

C(=C\C1CC2CCCN2O1)/c1ccccc1 (stereo not drawn)
inactive: dose: 25.0 mg/kg/injection, schedule: Q01DX009 (ip), vehicle: saline with Tween-80 90 % of control | [1] 105 % of control | [2] 100 % of control | [3] 107 % of control

CC1CC(c2ccccc2)(c2ccccc2)C(=O)C(C)N1C (stereo not drawn)
inactive: [7] 107 % of control | [8] 105 % of control | [9] 97 % of control

Cc1ccc(NC(=O)Nc2nc3ccccc3s2)cc1NC(=O)Nc1nc2ccccc2s1
inactive: [4] 110 % of control | [5] 102 % of control | [6] 109 % of control

Cc1noc2c1NC(=O)OC(C)(C)C2
inactive: dose: 12.5 mg/kg/injection, schedule: Q01DX005 (ip), vehicle: Klucel (hydroxypropylcellulose) (HPC) 102 % of control | dose: 25.0 mg/kg/injection, schedule: Q01DX005 (ip), vehicle: Klucel (hydroxypropylcellulose) (HPC) 105 % of control | [7] 100 % of control | [8] 104 % of control | [9] 101 % of control

CCOC(=O)c1cc(Cl)ccc1OS(N)(=O)=O
inactive: [10] 105 % of control | [11] 100 % of control | [12] 99 % of control

C/C=C(\CC[Se]c1ccccc1)C(=O)OC
inactive: dose: 50.0 mg/kg/injection, schedule: Q01DX009 (ip), vehicle: distilled water + Tween-80 + alcohol 108 % of control | dose: 100.0 mg/kg/injection, schedule: Q01DX009 (ip), vehicle: distilled water + Tween-80 + alcohol 98 % of control | dose: 200.0 mg/kg/injection, schedule: Q01DX009 (ip), vehicle: distilled water + Tween-80 + alcohol 106 % of control

CC1(C)CC(=O)C2=C(SC3=C(C2)C(=O)CC(C)(C)S3)S1
inactive: [10] 104 % of control | [11] 100 % of control | [12] 87 % of control

FC(F)(F)COP1(OCC(F)(F)F)(OCC(F)(F)F)SC(C(F)(F)F)=C(C(F)(F)F)S1
inactive: dose: 50.0 mg/kg/injection, schedule: Q04DX002 (ip), vehicle: saline 102 % of control and 103 % of control | dose: 100.0 mg/kg/injection, schedule: Q04DX002 (ip), vehicle: saline 99 % of control and 100 % of control (2×) | dose: 200.0 mg/kg/injection, schedule: Q04DX002 (ip), vehicle: saline 100 % of control and 107 % of control | dose: 400.0 mg/kg/injection, schedule: Q04DX002 (ip), vehicle: saline 102 % of control and 107 % of control

C=C1C(=O)CCC1/C=C\C (stereo not drawn)
inactive: dose: 12.5 mg/kg/injection, schedule: Q01DX005 (ip), vehicle: saline with Tween-80 111 % of control | dose: 25.0 mg/kg/injection, schedule: Q01DX005 (ip), vehicle: saline with Tween-80 110 % of control | [13] 99 % of control

Cc1ccc(CNc2ccccc2)cc1
inactive: dose: 100.0 mg/kg/injection, schedule: Q01DX009 (ip), vehicle: other 100 % of control | dose: 200.0 mg/kg/injection, schedule: Q01DX009 (ip), vehicle: other 100 % of control | dose: 400.0 mg/kg/injection, schedule: Q01DX009 (ip), vehicle: other 100 % of control

CN1CCN(C(=O)c2cccc3cccc(C(=O)O)c23)CC1
inactive: dose: 60.0 mg/kg/injection, schedule: Q01DX005 (ip), vehicle: water 103 % of control | dose: 120.0 mg/kg/injection, schedule: Q01DX005 (ip), vehicle: water 93 % of control | dose: 240.0 mg/kg/injection, schedule: Q01DX005 (ip), vehicle: water 100 % of control

O=C1N=NC2NC=CN3C=CC=C1C23 (stereo not drawn)
inactive: [14] 102 % of control | [15] 107 % of control | [16] 110 % of control

O=C1CCC(C(Sc2ccccc2)Sc2ccccc2)C1 (stereo not drawn)
inactive: [4] 110 % of control | [5] 106 % of control | [6] 93 % of control

COB(C1CCCCC1)C1CCCCC1
inactive: dose: 50.0 mg/kg/injection, schedule: Q01DX009 (ip), vehicle: acetone 100 % of control | dose: 100.0 mg/kg/injection, schedule: Q01DX009 (ip), vehicle: acetone 105 % of control | dose: 200.0 mg/kg/injection, schedule: Q01DX009 (ip), vehicle: acetone 105 % of control

COc1ccccc1NC(=O)C1=C(C)NC(C)=C(C(=O)Nc2ccccc2OC)C1c1ccc(OC)c(OC)c1
inactive: [14] 103 % of control | [15] 99 % of control | [16] 94 % of control

O=S(=O)(O)c1cc2nonc2c2ccccc12
inactive: [13] 98 % of control | dose: 100.0 mg/kg/injection, schedule: Q01DX005 (ip), vehicle: saline with Tween-80 98 % of control | dose: 200.0 mg/kg/injection, schedule: Q01DX005 (ip), vehicle: saline with Tween-80 95 % of control

S=C(S)N1CCCC1
inactive: dose: 50.0 mg/kg/injection, schedule: Q01DX009 (ip), vehicle: saline 100 % of control | dose: 100.0 mg/kg/injection, schedule: Q01DX009 (ip), vehicle: saline 93 % of control

CC(C)C1CS1=O (stereo not drawn)
inactive: dose: 60.0 mg/kg/injection, schedule: Q01DX005 (ip), vehicle: saline 97 % of control | dose: 120.0 mg/kg/injection, schedule: Q01DX005 (ip), vehicle: saline 97 % of control | dose: 240.0 mg/kg/injection, schedule: Q01DX005 (ip), vehicle: saline 109 % of control

CCOC(=O)c1nc2c(N)nc(-c3ccccc3)nc2[nH]c1=O
inactive: [1] 94 % of control | [2] 92 % of control | [3] 97 % of control

CN=C(N)N/N=C(/C)c1cc2ccccc2c2ccccc12
inactive: dose: 25.0 mg/kg/injection, schedule: Q04DX002 (ip), vehicle: saline with Tween-80 95 % of control | dose: 50.0 mg/kg/injection, schedule: Q04DX002 (ip), vehicle: saline with Tween-80 101 % of control | dose: 100.0 mg/kg/injection, schedule: Q04DX002 (ip), vehicle: saline with Tween-80 102 % of control

From PubChem BioAssay AID330 (DTP/NCI, 2004)
